Test results reported in patent US20220402980A1, “CHROMOGRANIN A-DERIVED PEPTIDES AND USES THEREOF” (OSPEDALE SAN RAFFAELE S.R.L., priority 2019, published 2022).
Read-outs that look alike come from different tables or passages of the source. One block for each compound: values may come before it. Where a SMILES comes first, the peptide text is derived from it. Bridges are numbered along the chain shown (N, C = ends). Triazole bridges read from a SMILES are 1,4-linked. [ ]: non-standard residue; d: D form. Lys(N3) = [N-]=[N+]=NCCCC[C@H](N)C(=O)O; Pra = C#CC[C@H](N)C(=O)O

Legend:
in vivo = conditions: mouse, iv, 3 MBq/animal, total radioactivity
5637 cells = test: Binding of peptide-IRDye conjugates to cultured 5637 cells; type: cell-based, human; conditions: 5637 cells; 5a-IRDye 4 nM
Protocol: (§1) B) Binding of the indicated peptide-IRDye conjugates to the various cell lines. Various amounts of conjugates were added to cell monolayers (grown in 96-well microtiter plates) and incubated for 1 h at 37° C., 5% CO2 (see Experimental section). After washing, bound fluorescence was measured using an Odyssey CLx (LI-COR) scanner. A representative image of the scanned plate and binding quantification are reported. Mean ±SE of quadruplicate wells.
(§2) Various amounts of unlabeled peptides were mixed 5a-IRDye (4 nM) and added to the cells. After 1 h, the plates were washed, and the bound fluorescence was quantified as described above (left panels).
(§3) The binding of peptide-IRDye conjugates to BxPC-3, 5637, HUVECs, 4T1, K8484 and DT6606 cells was analyzed as follows. The cells were grown in 96-well clear-bottom black microtiterplates (Corning® cat. 3603, 2-3x10^4 cells/well, plated 48 h before the experiment). After washing twice with 0.9% sodium chloride solution, the cells were incubated with 25 mM Hepes buffer, pH 7.4, containing 150 mM sodium chloride, 1 mM magnesium chloride, 1 mM manganese chloride and 1% BSA (binding buffer) for 5 min. Peptide-IRDye conjugates (0.013-40 nM in binding buffer) were then added to the cells and left to incubate for 1 h at 37° C., 5% CO2. After three washings with binding buffer (5 min each, 200 al/well), the cells were fixed with PBS containing 2% paraformaldehyde and 3% sucrose for 15 min at room temperature. Binding of conjugates to cells was quantified by scanning the plate (filled with PBS, 100 al/well) with the Odyssey CLx (LI-COR) using the following settings: scan intensity, 8.5; scan focus offset 4; scan quality, highest; channel, 800; resolution, 169 pm. Then, the plates were incubated with 5 μg/ml of 4′,6-diamidino-2-phenylindole (DAPI) for 15 min, washed twice with PBS and read with a VICTOR3 plate reader (Perkin Elmer, Waltham, Mass., USA) to quantify the cell number in each well, using the following filters: excitation, 355±40 nm; emission, 460±25 nm (acquisition,1 s).

αvβ6 = target: T1, αvβ6 (Homo sapiens, UniProt P06756+P18564); test: Competitive integrin binding assay (isoDGR/STV-HRP probe), αvβ6-coated plates
T1 construct: recombinant human αvβ6 extracellular domain (R&D Systems); purchased R&D Systems (Minneapolis, Minn.)
Protocol: (§4) Peptide binding was measured by a competitive binding assay using as integrin probe a complex made by a N-terminal acetylated isoDGR peptide biotinylated at the E-amino group of the lysine, acetyl-Ciso[…]-bio (SEQ ID No. 29), and a streptavidin-peroxidase conjugate (called isoDGR/STV-HRP)[43].
(§5) Each mixture was then added to integrin-coated wells and left to incubate for 2 h at room temperature. After washing with 25 mM Tris-HCl, pH 7.4, containing 150 mM sodium chloride, 1 mM magnesium chloride, 1 mM manganese chloride, each well was filled with a chromogenic solution (o-phenylenediamine dihydrochloride) and left to incubate for 30 min at room temperature. The chromogenic reaction was stopped by adding 1 N sulfuric acid. The absorbance at 490 nm was then measured using a microtiterplate reader. Ki values were calculated by non-linear regression analysis of competitive binding data using the “One site - Fit Ki” equation of the GraphPad Prism Software using the Kd values of the probe indicated above.

αvβ8 = αvβ8 (Homo sapiens, UniProt P06756+P26012); test: Competitive integrin binding assay (isoDGR/STV-HRP probe), αvβ8-coated plates
Protocol: as §4, §5

BxPC-3 cells = test: Binding of peptide-IRDye conjugates to cultured BxPC-3 cells; type: cell-based, human; conditions: BxPC-3 cells; 5a-IRDye 4 nM
Protocol: as §1, §2, §3

[1] = Peptide stability in mouse liver microsomal preparations (RP-HPLC); type: in vitro ADME; conditions: C57BL/6, mouse, liver microsomes; 37° C.; read-out: t1/2 in mouse liver microsomes (converted)
Protocol: FIG. 14. Stability of peptides 4 and 5 in murine liver microsomes as determined by RP-HPLC. a) RP-HPLC of 4 and 5 after incubation at 37° C. in murine liver microsomes. Peak 1 corresponds to 4 and 5. The peptides were added to murine liver microsomes (454 - μg/ml, final concentration) and incubated for the indicated time, diluted with an equal volume of 90% acetonitrile containing 0.1% TFA and analyzed onto a LiChrospher C18 column (16 ag). No peptide indicates liver microsome aliquot without the peptide. b) Quantification of Peak 1 area (left panel) and height (right panel) of the indicated peptides. The corresponding half-life is also shown.
The stability of compound 4 and 5 in mouse liver microsomal preparations was assessed by HPLC analysis. To this aim microsomes were prepared as follows: 11 g of mouse liver tissue (C57BL/6 mice) was homogenized in cold PBS supplemented with 0.25 M sucrose (3 ml/g of tissue) using a Potter-Elvehjem homogenizer (10 strokes), followed by additional homogenization using a rotor-stator homogenizer (40 sec). The homogenate was filtered through 70 pm cell-strainers, centrifuged three times to remove insoluble materials (500 x g, 5 min; 3000 x g, 30 min; 110000 x g, 90 min, 4° C.). […] Protein concentration was measured by measuring the absorbance at 280 nm with a NanoDrop spectrophotometer (Thermo Scientific). […]

[2] = tested on: human bladder carcinoma 5637 cells; test: 5637 cell viability (PrestoBlue); type: cell-based; conditions: 48 h
Protocol: FIG. 12. Effect of peptides 4 and 5 on human bladder carcinoma 5637 cell viability. 5637 cells were seeded in a 96-well microtiterplate (20,000 cell/well) and cultured for 16 h at 37° C., 5% CO2. The day after the indicated doses of peptide 4 and 5 were added to the cells and left to incubate for additionally 48 h at 37° C., 5% CO2. Cell viability was assessed using the PrestoBlue* cell viability reagent (ThermoFisher) according to the manufacturer's instructions. Viability of the treated cells was normalized to that of untreated cells and is reported as a percentage (mean±SE of triplicate wells).

SMILES: CC[C@H](C)[C@H](NC(=O)[C@H](CCCNC(=N)N)NC(=O)[C@H](CC(C)C)NC(=O)[C@H](CC(=O)O)NC(=O)CNC(=O)[C@H](CCCNC(=N)N)NC(=O)[C@H](CC(C)C)NC(=O)[C@@H](NC(=O)[C@H](CCC(=O)O)NC(=O)[C@H](Cc1ccccc1)NC(=O)[C@@H](N)CSC1CC(=O)N(CCNC(=O)CN2CCN(CC(=O)O)CCN(CC(=O)O)CC2)C1=O)[C@@H](C)O)C(=O)N[C@@H](CC(C)C)C(=O)N[C@@H](CO)C(=O)N[C@H](C(=O)N[C@@H](CC(C)C)C(=O)N[C@@H](CCCNC(=N)N)C(=O)N[C@H]1Cc2cn(nn2)CCCC[C@@H](C(=O)N[C@@H](CCCCN)C(=O)N[C@@H](CCC(=O)O)C(=O)N[C@@H](CC(C)C)C(=O)N[C@@H](CCC(N)=O)C(=O)N[C@@H](CC(=O)O)C(N)=O)NC(=O)[C@H](CC(C)C)NC(=O)[C@H](CC(N)=O)NC(=O)[C@H](CCC(N)=O)NC1=O)[C@@H](C)CC (some centres unmarked) [1^8F-NOTA-5a]
tissue uptake at 2 h (in vivo; accumulation in intestine, femur, liver and stomach): ~2 %ID/g
tissue uptake at 2 h (in vivo; accumulation in the lungs): 1.2 %ID/g
tissue uptake at 2 h (in vivo; radiotracer levels in the kidneys): ~80 %ID/g
tissue uptake at 2 h (in vivo; uptake in brain, heart, spleen, blood, muscle): < 0.5 %ID/g

Ki (αvβ6; Table 3b, mean ± SE, read-out: Binding affinity for αvβ6 Ki): > 50000 nM
Ki (αvβ8; Table 3b, mean ± SE, read-out: Binding affinity for αvβ8 Ki): > 50000 nM
SMILES: CC[C@H](C)[C@H](NC(=O)[C@H](CCCNC(=N)N)NC(=O)[C@H](CCC(=O)O)NC(=O)[C@H](CCC(=O)O)NC(=O)CNC(=O)[C@H](CCCNC(=N)N)NC(=O)[C@H](CC(C)C)NC(=O)[C@@H](NC(=O)[C@H](CCC(=O)O)NC(=O)[C@H](Cc1ccccc1)NC(=O)[C@@H](N)CS)[C@@H](C)O)C(=O)N[C@@H](CC(C)C)C(=O)N[C@@H](CO)C(=O)N[C@H](C(=O)N[C@@H](CC(C)C)C(=O)N[C@@H](CCCNC(=N)N)C(=O)N[C@@H](Cc1c[nH]cn1)C(=O)N[C@@H](CCC(N)=O)C(=O)N[C@@H](CC(N)=O)C(=O)N[C@@H](CC(C)C)C(=O)N[C@@H](CC(C)C)C(=O)N[C@@H](CCCCN)C(=O)N[C@@H](CCC(=O)O)C(=O)N[C@@H](CC(C)C)C(=O)N[C@@H](CCC(N)=O)C(=O)N[C@@H](CC(=O)O)C(=O)O)[C@@H](C)CC [peptide 2a, reference compound] (H-CFETLRGEERILSILRHQNLLKELQD-OH; N-terminus and C-terminus assumed)
inhibition of 5a-IRDye binding by excess of free peptide (5637 cells): not
inhibition of 5a-IRDye binding by excess of free peptide (BxPC-3 cells): not

SMILES: CC[C@H](C)[C@H](NC(=O)[C@H](CCCNC(=N)N)NC(=O)[C@H](CC(C)C)NC(=O)[C@H](CC(=O)O)NC(=O)CNC(=O)[C@H](CCCNC(=N)N)NC(=O)[C@H](CC(C)C)NC(=O)[C@@H](NC(=O)[C@H](CCC(=O)O)NC(=O)[C@H](Cc1ccccc1)NC(C)=O)[C@@H](C)O)C(=O)N[C@@H](CC(C)C)C(=O)N[C@@H](CO)C(=O)N[C@H](C(=O)N[C@@H](CC(C)C)C(=O)N[C@@H](CCCNC(=N)N)C(=O)N[C@H]1Cc2cn(nn2)CCCC[C@@H](C(=O)N[C@@H](CCCCN)C(=O)N[C@@H](CCC(=O)O)C(=O)N[C@@H](CC(C)C)C(=O)N[C@@H](CCC(N)=O)C(=O)N[C@@H](CC(=O)O)C(N)=O)NC(=O)[C@H](CC(C)C)NC(=O)[C@H](CC(N)=O)NC(=O)[C@H](CCC(N)=O)NC1=O)[C@@H](C)CC [peptide 5, FETLRGDLRILSILRX1QNLX2KELQD] (Ac-FETLRGDLRILSILR[Pra]QNL[Lys(N3)]KELQD-NH2; triazole 16-20)
Ki (αvβ6; Table 3a and text, ± standard error of the mean, read-out: Ki αvβ6): 0.6 ± 0.1 nM
half-life at 454 μg/ml [1]: 4.3 h
cytotoxicity in vitro [2]: not cytotoxic
Ki (αvβ8; Table 3a and text, ± standard error of the mean, read-out: Ki αvβ8): 3.2 ± 1.2 nM

SMILES: CC[C@H](C)[C@H](NC(=O)[C@H](CCCNC(=N)N)NC(=O)[C@H](CC(C)C)NC(=O)[C@H](CC(=O)O)NC(=O)CNC(=O)[C@H](CCCNC(=N)N)NC(=O)[C@H](CC(C)C)NC(=O)[C@@H](NC(=O)[C@H](CCC(=O)O)NC(=O)[C@H](Cc1ccccc1)NC(=O)[C@@H](N)CS)[C@@H](C)O)C(=O)N[C@@H](CC(C)C)C(=O)N[C@@H](CO)C(=O)N[C@H](C(=O)N[C@@H](CC(C)C)C(=O)N[C@@H](CCCNC(=N)N)C(=O)N[C@H]1Cc2cn(nn2)CCCC[C@@H](C(=O)N[C@@H](CCCCN)C(=O)N[C@@H](CCC(=O)O)C(=O)N[C@@H](CC(C)C)C(=O)N[C@@H](CCC(N)=O)C(=O)N[C@@H](CC(=O)O)C(N)=O)NC(=O)[C@H](CC(C)C)NC(=O)[C@H](CC(N)=O)NC(=O)[C@H](CCC(N)=O)NC1=O)[C@@H](C)CC [peptide 5a, CFETLRGDLRILSILRX1QNLX2KELQD]
inhibition of 5a-IRDye binding by excess of free peptide (5637 cells): significantly inhibited
inhibition of 5a-IRDye binding by excess of free peptide (BxPC-3 cells): significantly inhibited
